Source: ChEMBL document CHEMBL2073819, “Enhanced exposure of phosphatidylserine in human gastric carcinoma cells overexpressing the half-size ABC transporter BCRP (ABCG2)” (Biochem J, 2003)

Assays:
Format in all cases: functional, cell-based
[1] = molecular target: T1, Broad substrate specificity ATP-binding cassette transporter ABCG2 (Homo sapiens, UniProt Q9UNQ0); test: TP_TRANSPORTER: efflux in BCRP-expressing EPG85-257 cells
T1 sequence (Q9UNQ0 whole entry): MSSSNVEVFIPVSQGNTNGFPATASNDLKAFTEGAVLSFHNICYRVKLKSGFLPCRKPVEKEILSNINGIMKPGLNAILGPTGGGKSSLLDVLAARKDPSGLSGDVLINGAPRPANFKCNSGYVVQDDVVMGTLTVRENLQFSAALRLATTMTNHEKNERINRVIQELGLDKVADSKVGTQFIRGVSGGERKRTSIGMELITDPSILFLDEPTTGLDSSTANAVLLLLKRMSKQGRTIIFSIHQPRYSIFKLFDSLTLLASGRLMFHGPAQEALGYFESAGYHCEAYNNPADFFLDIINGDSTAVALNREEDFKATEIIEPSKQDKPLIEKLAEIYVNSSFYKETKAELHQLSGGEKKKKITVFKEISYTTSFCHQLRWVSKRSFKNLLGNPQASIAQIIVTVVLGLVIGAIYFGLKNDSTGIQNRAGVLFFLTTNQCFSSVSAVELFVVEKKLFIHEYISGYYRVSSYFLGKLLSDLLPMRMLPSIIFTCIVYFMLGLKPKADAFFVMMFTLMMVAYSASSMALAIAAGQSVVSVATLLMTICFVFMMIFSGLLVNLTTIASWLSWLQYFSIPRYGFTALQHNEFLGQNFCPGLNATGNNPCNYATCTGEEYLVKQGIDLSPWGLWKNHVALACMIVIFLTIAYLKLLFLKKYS

[2] = molecular target: T2, ATP-dependent translocase ABCB1 (Homo sapiens, UniProt P08183); test: TP_TRANSPORTER: efflux in MDR1-expressing EPG85-257 cells
[3] = molecular target: T1, Broad substrate specificity ATP-binding cassette transporter ABCG2; test: TP_TRANSPORTER: inhibition of C6-NBD-PS efflux in BCRP-expressing EPG85-257 cells
[4] = molecular target: T2, ATP-dependent translocase ABCB1; test: TP_TRANSPORTER: inhibition of C6-NBD-PS efflux in MDR1-expressing EPG85-257 cells

T2 sequence (P08183 whole entry): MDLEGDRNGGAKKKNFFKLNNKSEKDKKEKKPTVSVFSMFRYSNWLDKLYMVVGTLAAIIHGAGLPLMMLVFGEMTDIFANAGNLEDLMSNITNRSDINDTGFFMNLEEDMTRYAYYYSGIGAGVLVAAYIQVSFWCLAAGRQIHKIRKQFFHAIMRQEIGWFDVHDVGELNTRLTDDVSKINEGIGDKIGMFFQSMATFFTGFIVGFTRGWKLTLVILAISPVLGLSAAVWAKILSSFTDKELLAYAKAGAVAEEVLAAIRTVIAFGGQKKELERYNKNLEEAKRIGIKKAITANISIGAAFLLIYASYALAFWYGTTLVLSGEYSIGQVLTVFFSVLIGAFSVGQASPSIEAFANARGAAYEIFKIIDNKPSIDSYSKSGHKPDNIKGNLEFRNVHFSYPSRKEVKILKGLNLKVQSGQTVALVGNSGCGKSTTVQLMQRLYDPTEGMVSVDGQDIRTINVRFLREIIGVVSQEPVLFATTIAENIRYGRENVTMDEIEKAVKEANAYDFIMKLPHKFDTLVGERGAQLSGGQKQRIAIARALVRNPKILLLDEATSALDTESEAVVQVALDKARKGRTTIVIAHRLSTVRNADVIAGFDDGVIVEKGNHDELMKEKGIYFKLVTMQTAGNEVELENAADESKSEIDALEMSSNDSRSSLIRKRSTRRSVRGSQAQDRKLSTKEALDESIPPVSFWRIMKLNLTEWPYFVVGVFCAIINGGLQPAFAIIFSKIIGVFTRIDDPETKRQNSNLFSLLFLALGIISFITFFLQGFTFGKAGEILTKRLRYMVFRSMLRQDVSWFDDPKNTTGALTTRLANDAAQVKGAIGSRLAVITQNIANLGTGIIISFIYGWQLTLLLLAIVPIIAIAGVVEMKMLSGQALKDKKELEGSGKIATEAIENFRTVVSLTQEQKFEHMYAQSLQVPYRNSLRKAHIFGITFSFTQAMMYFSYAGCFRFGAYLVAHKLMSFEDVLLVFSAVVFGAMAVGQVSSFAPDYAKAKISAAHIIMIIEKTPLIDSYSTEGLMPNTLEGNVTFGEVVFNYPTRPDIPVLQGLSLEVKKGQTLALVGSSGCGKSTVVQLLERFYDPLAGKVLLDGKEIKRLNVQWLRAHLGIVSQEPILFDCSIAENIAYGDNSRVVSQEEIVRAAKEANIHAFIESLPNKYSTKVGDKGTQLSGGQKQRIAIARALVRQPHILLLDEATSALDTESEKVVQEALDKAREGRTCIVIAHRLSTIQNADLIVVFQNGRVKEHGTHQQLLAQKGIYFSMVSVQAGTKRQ

| Activity [2] | Compound | Activity [1] | Activity [3] | Activity [4] |
| --- | --- | --- | --- | --- |
|  | CCCCCCCCCCCCCCCC(=O)OCC(COP(=O)([O-])OCC[N+](C)(C)C)OC(=O)CCCCCNc1ccc([N+](=O)[O-])c2nonc12 (stereo unspecified) | substrate [] |  |  |
| substrate [] | CCCCCCCC/C=C\CCCCCCCC(=O)OC(COC(=O)CCCCCCC/C=C/CCCCCCCC)COP(=O)(O)OC[C@H](Nc1ccc([N+](=O)[O-])c2nonc12)C(=O)O (stereo partly specified) | substrate [] |  |  |
|  | COc1cc2c(cc1OC)CN(CCc1ccc(NC(=O)c3cccc4c(=O)c5cccc(OC)c5[nH]c34)cc1)CC2.Cl [ELACRIDAR HYDROCHLORIDE] |  | inhibitor [] |  |
|  | COc1ccc2c(C[C@@H]3NC(=O)[C@@H]4CCCN4C3=O)c(CC=C(C)C)[nH]c2c1 [TRYPROSTATIN A] |  | inhibitor [] | inhibitor [] |
